Data on one molecule can be found in paper PMC9730523 (Frontiers in Immunology, 2022).

Data set [1] has as its target T1, hMC1 (Homo sapiens, UniProt Q01726). Briefly: ERK1/2 phosphorylation assay, transfected HEK293A. The class given is cell-based. The arrangement: host or cells: HEK293A. Particulars: 5 min; p-ERK1/2, hMC1; normalised maximal efficacy at 2μM, percentage of maximal αMSH response; read-out: Top.
Data set [2] concerns the target T2, hMC3 (Homo sapiens, UniProt P41968). Nature of the data set: ERK1/2 phosphorylation assay, transfected HEK293A. On the set-up: host or cells: HEK293A. To be noted: 5 min; p-ERK1/2, hMC3; normalised maximal efficacy at 2μM, percentage of maximal αMSH response; read-out: Top. It is filed as cell-based.
In data set [3] the target is T3, mMC4 (Mus musculus, UniProt P56450).
T3 construct: host or cells: HEK293A
Briefly: ERK1/2 phosphorylation assay, transfected HEK293A. It is filed as cell-based. To be noted: HEK293-A, 5 min; p-ERK1/2, mMC4; normalised maximal efficacy at 2μM, percentage of maximal αMSH response; read-out: Top.

In data set [4] the target is T4, hMC5 (Homo sapiens, UniProt P33032). Nature of the data set: ERK1/2 phosphorylation assay, transfected HEK293A. Particulars: HEK293-A, 5 min; p-ERK1/2, hMC5; normalised maximal efficacy at 2μM, percentage of maximal αMSH response; read-out: Top. The arrangement: host or cells: HEK293A. The class given is cell-based.
The target of data set [5] is T5, mMC1 (Mus musculus, UniProt Q01727). Briefly: ERK1/2 phosphorylation assay, transfected HEK293A. The class given is cell-based. The arrangement: host or cells: HEK293A. To be noted: HEK293-A, 5 min; p-ERK1/2, mMC1; normalised maximal efficacy at 2μM, percentage of maximal αMSH response; read-out: Top.
Data set [6] deals with T1, hMC1. Briefly: cAMP accumulation assay, transfected HEK293A. On the set-up: dose or concentration left out as unconfirmed. To be noted: HMC1, 0.25 h, read-out: Top. (In general: Changes in cAMP serve as a functional read-out for many G protein-coupled receptors.)
In data set [7] the target is T4, hMC5. Briefly: cAMP accumulation assay, transfected HEK293A. To be noted: HEK293-A, 0.25 h, read-out: Top. The arrangement: dose or concentration left out as unconfirmed.
In data set [8] the target is T6, mMC5 (Mus musculus, UniProt P41149). Briefly: ERK1/2 phosphorylation assay, transfected HEK293A. It is filed as cell-based. On the set-up: host or cells: HEK293A. Particulars: HEK293-A, 5 min; p-ERK1/2, mMC5; normalised maximal efficacy at 2μM, percentage of maximal αMSH response; read-out: Top.
The target in data set [9] is T5, mMC1. Briefly: cAMP accumulation assay, transfected HEK293A. On the set-up: dose or concentration left out as unconfirmed. To be noted: HEK293-A, 0.25 h, read-out: Top.
In data set [10] the target is T3, mMC4. Briefly: cAMP accumulation assay, transfected HEK293A. The class given is cell-based. To be noted: HEK293-A, 0.25 h, normalised maximal efficacy at 2μM, percentage of maximal αMSH response, read-out: Top.
The target in data set [11] is T2, hMC3. Nature of the data set: cAMP accumulation assay, transfected HEK293A. On the set-up: dose or concentration left out as unconfirmed. Particulars: HMC3, 0.25 h, read-out: Top.
Data set [12] deals with T7, hMC4 (Homo sapiens, UniProt P32245).
T7 construct: host or cells: HEK293A
Briefly: ERK1/2 phosphorylation assay, transfected HEK293A. It is filed as cell-based. Particulars: HEK293-A, 5 min; p-ERK1/2, hMC4; normalised maximal efficacy at 2μM, percentage of maximal αMSH response; read-out: Top.

For data set [13] the following is noted: humans, single subcutaneous administration; cited from earlier work.
Data set [14] has as its target T6, mMC5. Briefly: cAMP accumulation assay, transfected HEK293A. To be noted: HEK293-A, 0.25 h, read-out: Top. The arrangement: dose or concentration left out as unconfirmed.
Data set [15] concerns the target T7, hMC4. Nature of the data set: cAMP accumulation assay, transfected HEK293A. It is filed as cell-based. Particulars: HEK293-A, 0.25 h, normalised maximal efficacy at 2μM, percentage of maximal αMSH response, read-out: Top.

T4 sequence (P33032 whole entry): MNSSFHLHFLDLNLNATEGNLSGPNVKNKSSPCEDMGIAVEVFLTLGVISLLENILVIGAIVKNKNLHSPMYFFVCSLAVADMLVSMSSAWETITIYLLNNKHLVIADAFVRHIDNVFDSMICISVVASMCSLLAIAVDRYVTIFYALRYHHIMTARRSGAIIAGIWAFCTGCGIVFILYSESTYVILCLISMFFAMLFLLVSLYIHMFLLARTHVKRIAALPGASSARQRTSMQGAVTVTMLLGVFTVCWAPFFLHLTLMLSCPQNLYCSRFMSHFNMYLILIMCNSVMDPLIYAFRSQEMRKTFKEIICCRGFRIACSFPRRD
T6 sequence (P41149 whole entry): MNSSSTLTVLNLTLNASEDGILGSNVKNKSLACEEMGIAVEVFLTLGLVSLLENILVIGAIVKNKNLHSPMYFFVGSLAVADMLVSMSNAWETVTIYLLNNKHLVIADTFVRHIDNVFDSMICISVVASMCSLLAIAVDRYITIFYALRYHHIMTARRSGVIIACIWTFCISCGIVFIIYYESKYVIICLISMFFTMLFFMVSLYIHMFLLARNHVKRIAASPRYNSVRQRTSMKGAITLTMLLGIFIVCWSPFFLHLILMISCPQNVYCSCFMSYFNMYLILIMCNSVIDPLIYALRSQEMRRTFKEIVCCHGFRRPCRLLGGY
T1 sequence (Q01726 whole entry): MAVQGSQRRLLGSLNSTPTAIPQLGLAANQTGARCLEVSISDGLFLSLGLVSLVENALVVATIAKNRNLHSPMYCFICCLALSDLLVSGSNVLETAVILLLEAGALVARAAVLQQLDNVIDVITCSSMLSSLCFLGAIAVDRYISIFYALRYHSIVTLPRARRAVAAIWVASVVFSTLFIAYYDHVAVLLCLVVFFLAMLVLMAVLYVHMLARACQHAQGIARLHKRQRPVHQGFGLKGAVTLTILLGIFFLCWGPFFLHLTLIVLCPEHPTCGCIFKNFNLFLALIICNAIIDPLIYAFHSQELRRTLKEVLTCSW
T2 sequence (P41968 whole entry): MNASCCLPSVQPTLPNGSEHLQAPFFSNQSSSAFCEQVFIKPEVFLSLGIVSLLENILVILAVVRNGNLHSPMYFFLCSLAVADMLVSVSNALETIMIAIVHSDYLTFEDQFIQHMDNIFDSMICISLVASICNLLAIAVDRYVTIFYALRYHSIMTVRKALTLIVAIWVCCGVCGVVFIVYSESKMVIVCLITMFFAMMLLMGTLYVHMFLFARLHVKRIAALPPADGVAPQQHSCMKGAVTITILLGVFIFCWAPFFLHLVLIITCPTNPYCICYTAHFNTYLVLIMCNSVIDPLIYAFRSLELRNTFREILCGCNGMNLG
T5 sequence (Q01727 whole entry): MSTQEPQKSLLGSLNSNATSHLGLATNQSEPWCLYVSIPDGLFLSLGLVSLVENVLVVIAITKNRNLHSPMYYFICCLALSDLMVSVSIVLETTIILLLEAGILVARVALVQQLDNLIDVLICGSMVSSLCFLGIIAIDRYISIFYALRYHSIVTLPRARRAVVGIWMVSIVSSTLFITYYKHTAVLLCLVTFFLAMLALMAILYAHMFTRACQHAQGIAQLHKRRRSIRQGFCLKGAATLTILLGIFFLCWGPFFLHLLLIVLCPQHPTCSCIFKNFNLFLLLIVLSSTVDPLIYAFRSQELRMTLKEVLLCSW
T7 sequence (P32245 whole entry): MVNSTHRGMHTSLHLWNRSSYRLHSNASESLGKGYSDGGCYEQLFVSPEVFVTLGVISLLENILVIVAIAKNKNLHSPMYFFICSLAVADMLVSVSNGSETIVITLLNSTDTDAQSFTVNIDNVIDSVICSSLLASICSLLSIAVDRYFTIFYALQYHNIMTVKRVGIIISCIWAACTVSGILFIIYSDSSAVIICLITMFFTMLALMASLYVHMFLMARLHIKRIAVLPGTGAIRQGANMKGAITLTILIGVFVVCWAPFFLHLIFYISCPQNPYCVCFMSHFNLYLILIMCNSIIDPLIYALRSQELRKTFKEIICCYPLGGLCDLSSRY
T3 sequence (P56450 whole entry): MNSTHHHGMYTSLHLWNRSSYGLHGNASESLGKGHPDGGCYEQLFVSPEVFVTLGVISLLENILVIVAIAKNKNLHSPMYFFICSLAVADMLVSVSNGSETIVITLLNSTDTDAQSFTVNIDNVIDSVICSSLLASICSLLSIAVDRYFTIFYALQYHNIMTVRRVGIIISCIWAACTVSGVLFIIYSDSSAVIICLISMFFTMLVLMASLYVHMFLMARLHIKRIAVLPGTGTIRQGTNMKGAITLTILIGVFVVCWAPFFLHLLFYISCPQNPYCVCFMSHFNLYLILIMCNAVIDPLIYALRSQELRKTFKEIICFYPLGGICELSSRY

As to `CCCC[C@H](NC(C)=O)C(=O)N[C@H]1CCC(=O)NC[C@@H](C(=O)N[C@@H](Cc2c[nH]c3ccccc23)C(N)=O)NC(=O)[C@H](CCCNC(=N)N)NC(=O)[C@@H](Cc2ccccc2)NC(=O)[C@H](Cc2c[nH]cn2)NC1=O` [PL8177, Ac-Nle^1-cyclo(Glu^2-L-His^3-D-Phe^4-Arg^5-Dap^6)-Trp^7-NH2], the Emax at hMC1 [1] was found to be 136%; on hMC3 [2], 70.1%; on mMC4 [3] it was 80.7%; on hMC5 [4], 62.7%; on mMC1 [5], 99.7%; on hMC1 [6], 112%. Also, the Emax on hMC5 [7] is 38.2%; at mMC5 [8], 18.6%; on mMC1 [9] it was 103%; on hMC3 [11] it was 10.9%; at hMC4 [12], 56.1%; on mMC5 [14], 14.8%. Further, the Emax at 2 µM at mMC4 [10] was 75.1%; on hMC4 [15], 26.5%. In addition, the “persisting plasma levels after administration” value in [13] is 48 h.
